Values quoted from earlier work in patent EP4609858A1, “BUP[…] AND PREPARATION METHOD THEREFOR” (Shenzhen Sciencare Pharmaceutical Co., Ltd., priority 2023, dated 2024).
Where a name gives a salt, the structure may show the parent alone. Read-outs that look alike come from different tables or passages of the source.

SMILES: CO[C@]12CC[C@@]3(C[C@@H]1[C@](C)(O)C(C)(C)C)[C@H]1Cc4ccc(O)c5c4[C@@]3(CCN1CC1CC1)[C@H]2O5 [buprenorphine hydrochloride]
- solubility (in alcohol): soluble
- solubility (in methanol): freely soluble
- solubility (in water): slightly soluble
